Converted amounts (≈) assume the structure as drawn. Read-outs that look alike come from different tables or passages of the source.
Columns and labels:
[1] = test system: M. hyopneumoniae J2206/183^b; assay: MIC against Mycoplasma in vitro (Friis broth with agarose); assay type: cell-based; settings: Mesomycoplasma hyopneumoniae, 144 h
M. hyopneumoniae UCD 1 = assay: as above; assay type: cell-based; settings: Mesomycoplasma hyopneumoniae, UCD1, 144 h
M. hyopneumoniae TAM 6N = assay: as above; assay type: cell-based; settings: Mesomycoplasma hyopneumoniae, TAM6N, 144 h
[2] = test system: M. hyopneumoniae ATCC 25095; assay: as above; assay type: cell-based; settings: Mesomycoplasma hyopneumoniae, ATCC25095, 144 h
[3] = test system: M. hyopneumoniae NCTC 101101; assay: as above; assay type: cell-based; settings: Mesomycoplasma hyopneumoniae, NCTC101101, 144 h
[4] = test system: M. hyosynoviae ATCC 25591; assay: as above; assay type: cell-based; settings: 144 h
M. bovis NCTC 10131 = assay: microbe, parasite or virus in culture; assay type: cell-based; settings: NCTC10131, 144 h
Bacillus subtilis 6633 = assay: MIC against human bacteria in vitro (nutrient agar, chocolated horse blood); assay type: cell-based
Experimental: (§1) The activity of the normonyl derivaties of the Examples against various bacteria which are important in diseases of humans, was assayed in vitro using serial dilutions in nurient agar with 5% chocolated horse blood.

[5] = test system: Corynebacterium xerosis 9755; assay: as above; assay type: cell-based
Experimental: as §1

E. coli ESS = assay: as above; assay type: cell-based; settings: Escherichia coli
Experimental: as §1

E. coli NCTC 10418 [6] = assay: as above; assay type: cell-based; settings: Escherichia coli
Experimental: as §1

[7] = test system: Haemophilus influenzae Wy21; assay: as above; assay type: cell-based
Experimental: as §1

K. aerogenes A = assay: as above; assay type: cell-based; settings: Klebsiella aerogenes
Experimental: as §1

P. mirabilis 889 = assay: as above; assay type: cell-based
Experimental: as §1

[8] = test system: Pasteurella multocida 1633; assay: as above; assay type: cell-based
Experimental: as §1

[9] = test system: Ps. aeruginosa NCTC 10662; assay: as above; assay type: cell-based; settings: Pseudomonas aeruginosa
Experimental: as §1

Sarcina lutea 8340 = assay: as above; assay type: cell-based
Experimental: as §1

Staph. aureus Oxford = assay: as above; assay type: cell-based; settings: Staphylococcus aureus
Experimental: as §1

Staph. aureus Russell = assay: as above; assay type: cell-based; settings: Staphylococcus aureus
Experimental: as §1

Staph. aureus W2827 = assay: as above; assay type: cell-based; settings: Staphylococcus aureus
Experimental: as §1

Strep. agalactiae 2788-B = assay: as above; assay type: cell-based; settings: Streptococcus agalactiae
Experimental: as §1

Strep. faecalis I = assay: as above; assay type: cell-based; settings: Enterococcus faecalis
Experimental: as §1

[10] = test system: Strep. pyogenes R80/421-A; assay: as above; assay type: cell-based; settings: Streptococcus pyogenes
Experimental: as §1

Strep. spp. 64/848-C = assay: as above; assay type: cell-based
Experimental: as §1

E. coli NCTC 10418 [11] = assay: MIC against veterinary bacteria in vitro (Diagnostic Sensitivity Test Agar); settings: Escherichia coli, NCTC10418, 18 h
Experimental: (§2) The activity of the normonyl derivatives of the Examples against various veterinarily important bacteria, was assayed in vitro using two-fold serial dilutions in Diagnostic Sensitivity Test Agar inoculated with 10^4 organisms.

E. coli E1 = assay: as above; settings: Escherichia coli, E1, 18 h
Experimental: as §2

S. dublin S7 = assay: as above; settings: Salmonella enterica, S7, 18 h
Experimental: as §2

Bord. bronchiseptica B09 = assay: as above; settings: Bordetella bronchiseptica, B09, 18 h
Experimental: as §2

[12] = test system: Erysipelothrix rhusiopathiae NCTC 8163; assay: as above; settings: NCTC8163, 18 h
Experimental: as §2

[13] = test system: Corynebacterium pyogenes CY1; assay: as above; settings: CY1, 18 h
Experimental: as §2

[14] = test system: Staph. aureus 152 (pen. sens); assay: as above; settings: Staphylococcus aureus, 18 h
Experimental: as §2

Strep. uberis SPU1 = assay: as above; settings: Streptococcus uberis, SPU1, 18 h
Experimental: as §2

Strep. agalactiae SPA1 = assay: as above; settings: Streptococcus agalactiae, SPA1, 18 h
Experimental: as §2

[15] = human, Bacillus subtilis 6633, 18 hours at 37° C, read-out: MIC
[16] = human, Corynebacterium xerosis 9755, 18 hours at 37° C, read-out: MIC
[17] = human, E. coli ESS, 18 hours at 37° C, read-out: MIC
[18] = NCTC10418, human, E. coli NCTC 10418, 18 hours at 37° C, read-out: MIC
[19] = human, Haemophilus influenzae Wy21, 18 hours at 37° C, read-out: MIC
[20] = human, K. aerogenes A, 18 hours at 37° C, read-out: MIC
[21] = Proteus mirabilis, human, P. mirabilis 889, 18 hours at 37° C, read-out: MIC
[22] = human, Pasteurella multocida 1633, 18 hours at 37° C, read-out: MIC
[23] = NCTC10662, human, Ps. aeruginosa NCTC 10662, 18 hours at 37° C, read-out: MIC
[24] = Micrococcus luteus, human, Sarcina lutea 8340, 18 hours at 37° C, read-out: MIC
[25] = human, Staph. aureus Oxford, 18 hours at 37° C, read-out: MIC
[26] = human, Staph. aureus Russell, 18 hours at 37° C, read-out: MIC
[27] = human, Staph. aureus W2827, 18 hours at 37° C, read-out: MIC
[28] = human, Strep. agalactiae 2788-B, 18 hours at 37° C, read-out: MIC
[29] = human, Strep. faecalis I, 18 hours at 37° C, read-out: MIC
[30] = human, Strep. pyogenes R80/421-A, 18 hours at 37° C, read-out: MIC
[31] = human, Strep. spp. 64/848-C, 18 hours at 37° C, read-out: MIC

SMILES	MIC [1] [µg/mL]	MIC (M. hyopneumoniae UCD 1) [µg/mL]	MIC (M. hyopneumoniae TAM 6N) [µg/mL]	MIC [2] [µg/mL]	MIC [3] [µg/mL]	MIC [4] [µg/mL]	MIC (M. bovis NCTC 10131) [µg/mL]	MIC (Bacillus subtilis 6633; [15]) [µg/mL]	MIC [5, 16] [µg/mL]	MIC (E. coli ESS; [17]) [µg/mL]	MIC (E. coli NCTC 10418 [6]; [18]) [µg/mL]	MIC (E. coli NCTC 10418 [11]) [µg/mL]	MIC (E. coli E1) [µg/mL]	MIC (S. dublin S7) [µg/mL]	MIC (Bord. bronchiseptica B09) [µg/mL]	MIC [12] [µg/mL]	MIC [13] [µg/mL]	MIC [14] [µg/mL]	MIC (Strep. uberis SPU1) [µg/mL]	MIC (Strep. agalactiae SPA1) [µg/mL]	other results
CC(=Cc1nnc(-c2cccs2)o1)CC1OCC(CC2OC2C(C)C(C)O)C(O)C1O (stereo not drawn) [Example 6, 2-(1-Normon-2-yl)-5-(2-thienyl)-1,3,4-oxadiazole A]	5 (≈ 11.1 µM)	5 (≈ 11.1 µM)	5 (≈ 11.1 µM)	2.5 (≈ 5.55 µM)	5 (≈ 11.1 µM)	2.5 (≈ 5.55 µM)	0.05 (≈ 0.111 µM)	4 (≈ 8.88 µM)	128 (≈ 284 µM)	8 (≈ 17.8 µM)	> 128	> 80	> 80	> 80	80 (≈ 178 µM)	80 (≈ 178 µM)	> 80	5 (≈ 11.1 µM)	5 (≈ 11.1 µM)	40 (≈ 88.8 µM)	MIC [7, 19]: 2 µg/mL (≈ 4.44 µM); MIC (K. aerogenes A; [20]): > 128 µg/mL; MIC (P. mirabilis 889; [21]): > 128 µg/mL; MIC [8, 22]: 2 µg/mL (≈ 4.44 µM); MIC [9, 23]: > 128 µg/mL; MIC (Sarcina lutea 8340; [24]): 32 µg/mL (≈ 71 µM); MIC (Staph. aureus Oxford; [25]): 8 µg/mL (≈ 17.8 µM); MIC (Staph. aureus Russell; [26]): 16 µg/mL (≈ 35.5 µM); MIC (Staph. aureus W2827; [27]): 16 µg/mL (≈ 35.5 µM); MIC (Strep. agalactiae 2788-B; [28]): 32 µg/mL (≈ 71 µM); MIC (Strep. faecalis I; [29]): > 128 µg/mL; MIC [10, 30]: 16 µg/mL (≈ 35.5 µM); MIC (Strep. spp. 64/848-C; [31]): 32 µg/mL (≈ 71 µM)
CC(=CC(=O)NN)CC1OCC(CC2OC2C(C)C(C)O)C(O)C1O (stereo not drawn) [Example 9, Monohydrazide A]	10 (≈ 27.9 µM)	10 (≈ 27.9 µM)	10 (≈ 27.9 µM)	5 (≈ 13.9 µM)	10 (≈ 27.9 µM)	10 (≈ 27.9 µM)	0.5 (≈ 1.39 µM)	–	–	–	–	> 80	> 80	> 80	> 80	> 80	> 80	80 (≈ 223 µM)	80 (≈ 223 µM)	> 80	MIC (Bacillus subtilis 6633; Bacillus subtilis, 6633, 18 h): ≥ 100 µg/mL; MIC ([5]; Corynebacterium xerosis, 9755, 18 h): > 100 µg/mL; MIC (E. coli ESS; 18 h): ≥ 100 µg/mL; MIC (E. coli NCTC 10418 [6]; NCTC10418, 18 h): > 100 µg/mL; MIC ([7]; Haemophilus influenzae, WY21, 18 h): 2.5 µg/mL (≈ 6.97 µM); MIC (K. aerogenes A; 18 h): > 100 µg/mL; MIC (P. mirabilis 889; Proteus mirabilis, 889, 18 h): ≥ 100 µg/mL; MIC ([8]; Pasteurella multocida, 1633, 18 h): 10 µg/mL (≈ 27.9 µM); MIC ([9]; NCTC10662, 18 h): > 100 µg/mL; MIC (Sarcina lutea 8340; Micrococcus luteus, 8340, 18 h): > 100 µg/mL; MIC (Staph. aureus Oxford; 18 h): 100 µg/mL (≈ 279 µM); MIC (Staph. aureus Russell; 18 h): ≥ 100 µg/mL; MIC (Staph. aureus W2827; W2827, 18 h): ≥ 100 µg/mL; MIC (Strep. agalactiae 2788-B; 2788B, 18 h): ≥ 100 µg/mL; MIC (Strep. faecalis I; 18 h): > 100 µg/mL; MIC ([10]; R80/421A, 18 h): 100 µg/mL (≈ 279 µM); MIC (Strep. spp. 64/848-C; 18 h): ≥ 100 µg/mL
CC(=Cc1nnnn1Cc1ccc([N+](=O)[O-])cc1)CC1OCC(CC2OC2C(C)C(C)O)C(O)C1O (stereo not drawn) [Example 12, 1-(p-Nitrobenzyl)-5-(1-normon-2-yl)tetrazole A]	–	–	–	–	–	–	0.1 (≈ 0.199 µM)	100 (≈ 199 µM)	≥ 100	100 (≈ 199 µM)	> 100	> 80	> 80	> 80	> 80	> 80	> 80	> 80	80 (≈ 159 µM)	> 80	MIC ([1]; M. hyopneumoniae J2206/183^b, 6 days at 37° C, read-out: MIC): 5 µg/mL (≈ 9.93 µM); MIC (M. hyopneumoniae UCD 1; M. hyopneumoniae UCD 1, 6 days at 37° C, read-out: MIC): 5 µg/mL (≈ 9.93 µM); MIC (M. hyopneumoniae TAM 6N; M. hyopneumoniae TAM 6N, 6 days at 37° C, read-out: MIC): 5 µg/mL (≈ 9.93 µM); MIC ([2]; M. hyopneumoniae ATCC 25095, 6 days at 37° C, read-out: MIC): 5 µg/mL (≈ 9.93 µM); MIC ([3]; M. hyopneumoniae NCTC 101101, 6 days at 37° C, read-out: MIC): 5 µg/mL (≈ 9.93 µM); MIC ([4]; M. hyosynoviae ATCC 25591, 6 days at 37° C, read-out: MIC): 2.5 µg/mL (≈ 4.96 µM); MIC [7, 19]: 2.5 µg/mL (≈ 4.96 µM); MIC (K. aerogenes A; [20]): > 100 µg/mL; MIC (P. mirabilis 889; [21]): > 100 µg/mL; MIC [8, 22]: 5 µg/mL (≈ 9.93 µM); MIC [9, 23]: > 100 µg/mL; MIC (Sarcina lutea 8340; [24]): ≥ 100 µg/mL; MIC (Staph. aureus Oxford; [25]): 100 µg/mL (≈ 199 µM); MIC (Staph. aureus Russell; [26]): ≥ 100 µg/mL; MIC (Staph. aureus W2827; [27]): 100 µg/mL (≈ 199 µM); MIC (Strep. agalactiae 2788-B; [28]): 50 µg/mL (≈ 99.3 µM); MIC (Strep. faecalis I; [29]): > 100 µg/mL; MIC [10, 30]: 50 µg/mL (≈ 99.3 µM); MIC (Strep. spp. 64/848-C; [31]): 100 µg/mL (≈ 199 µM)
